The values that follow come from patent US10787444B2, “Compounds for the modulation of myc activity” (Syros Pharmaceuticals, Inc., priority 2015, dated 2020).

Where a name gives a salt, the structure may show the parent alone.

T1 sequence (P01106 whole entry): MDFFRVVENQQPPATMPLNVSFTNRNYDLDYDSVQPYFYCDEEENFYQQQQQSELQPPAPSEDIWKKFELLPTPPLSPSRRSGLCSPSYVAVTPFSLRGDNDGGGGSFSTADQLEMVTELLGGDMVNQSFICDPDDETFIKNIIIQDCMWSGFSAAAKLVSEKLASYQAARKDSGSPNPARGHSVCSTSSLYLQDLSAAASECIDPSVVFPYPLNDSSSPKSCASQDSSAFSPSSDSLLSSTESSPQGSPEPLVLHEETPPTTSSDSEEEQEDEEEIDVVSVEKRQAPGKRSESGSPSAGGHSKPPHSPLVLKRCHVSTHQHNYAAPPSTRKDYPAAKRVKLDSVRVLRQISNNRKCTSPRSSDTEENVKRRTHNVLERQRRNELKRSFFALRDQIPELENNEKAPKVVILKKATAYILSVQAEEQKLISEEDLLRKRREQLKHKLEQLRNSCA

One test concerns the target T1, c-Myc/Max/Ebox DNA (Homo sapiens, UniProt P01106).
T1 construct: his6 (cleaved yes)
The experiment in a line: c-Myc/Max/Ebox DNA AlphaScreen Assay. The class given is binding. The conditions noted are these: Table 2, compounds of FIG. 1; calculated IC50 class. As for the experimental part:
Compounds of the invention were assayed for c-Myc/Max/EBox activity as described in the following protocol. Human his6-c-Myc and his6-Max were used with biotinylated DNA containing a single Ebox sequence (biotin[…]) purchased from MWG Operon. Free c-Myc was generated from his6-c-Myc through thrombin cleavage of the his6 tag. For 384-well plate assays, 10 μL of a 2× solution of free c-Myc (20 nM final), Ni^2+ coated Acceptor Beads (25 μg/ml final), and biotinylated Ebox oligo (10 nM final) were added to 384-well plates with a Biotek EL406 liquid handler. 50 nL of compounds from stock plates were added by pin transfer using a Janus Workstation (PerkinElmer), allowing the compounds to interact with c-Myc prior to c-Myc binding with Max. In the current assay, DMSO was not allowed to exceed 2% v/v of the assay. 10 μl of 2× master mix containing streptavidin-coated donor beads (25 μg/ml final) and his6-Max (5 nM) were added. AlphaScreen measurements were performed on an Envision plate reader (PerkinElmer) utilizing the manufacturer's protocol.
Both master mixes were made in room temperature assay buffer (50 mM HEPES, 150 mM NaCl, 0.2% w/v BSA, 0.02% w/v Tween20, 40 μg/ml glycogen, 500 μM DTT, pH 8.0, wherein both DTT and glycogen were added fresh). Alpha beads were added to respective master solutions. All subsequent steps were performed in low light conditions. Solution 1:2× solution of components with final concentrations of c-Myc Ni-coated Acceptor Beads (25 μg/ml), and biotinylated Ebox oligo (10 nM). Solution 2:2× solution of streptavidin-coated donor beads (25 μg/ml final) and his6-Max 10 μL. […] 50 nL of compounds from stock plates were added by pin transfer using a Janus Workstation. Solution 2 (10 μl) was added with the liquid handler. Plates were sealed with foil to block light exposure and prevent evaporation. Plates were very briefly centrifuged followed by 2 hour incubation. […] Excitation was at 680 nm for donor bead release of singlet oxygen and emission was read with a bandpass filter from 520-620 nm.
For `CCOC(=O)CNCCC(=O)Nc1sc2c(c1-c1nc3ccccc3s1)CCN(C(C)C)C2` [Compound 138, Ethyl (3-((3-(benzo[d]thiazol-2-yl)-6-isopropyl-4,5,6,7-tetrahydrothieno[2,3-c]pyridin-2-yl)amino)-3-oxopropyl)glycinate], the half-maximal inhibitory concentration (IC50) (in general, the point on the concentration scale where inhibition reaches its midpoint) is 300 to 1000 nM.

For the compound `CC(C)N1CCc2c(sc(NC(=O)CCNCC(=O)O)c2-c2nc3ccccc3s2)C1` [Compound 168, (3-((3-(benzo[d]thiazol-2-yl)-6-isopropyl-4,5,6,7-tetrahydrothieno[2,3-c]pyridin-2-yl)amino)-3-oxopropyl)glycine], the IC50 is 300 to 1000 nM.

Regarding `CC(C)N1CCc2c(sc(NC(=O)CCNCCc3ccccc3Cl)c2-c2nc3ccccc3s2)C1` [Compound 109, N-(3-(benzo[d]thiazol-2-yl)-6-isopropyl-4,5,6,7-tetrahydrothieno[2,3-c]pyridin-2-yl)-3-((2-chlorophenethyl)amino)propanamide], the IC50 is more than 10000 nM.

Turning to `O=C(CCNCc1cn[nH]c1)Nc1sc2c(c1-c1nc3ccccc3s1)CCNC2` [Compound 167, 3-(((1H-pyrazol-4-yl)methyl)amino)-N-(3-(benzo[d]thiazol-2-yl)-4,5,6,7-tetrahydrothieno[2,3-c]pyridin-2-yl)propanamide], the IC50 is less than 300 nM.

For `O=C(O)CNCCC(=O)Nc1sc2c(c1-c1nc3ccccc3s1)CCNC2` [Compound 166, (3-((3-(benzo[d]thiazol-2-yl)-4,5,6,7-tetrahydrothieno[2,3-c]pyridin-2-yl)amino)-3-oxopropyl)glycine], the IC50 is 300 to 1000 nM.

Take `COCCNCCC(=O)Nc1sc2c(c1-c1nc3ccccc3s1)C[C@H](C)NC2` [Compound 538, (S)—N-(3-(Benzo[d]thiazol-2-yl)-5-methyl-4,5,6,7-tetrahydrothieno[2,3-c]pyridin-2-yl)-3-((2-methoxyethyl)amino)propanamide]: the IC50 is 300 to 1000 nM.

Take “N-(3-(Benzo[d]thiazol-2-yl)-6-isopropyl-4,5,6,7-tetrahydrothieno[2,3-c]pyridin-2-yl)-3-(isobutylamino)propanamide [Compound 552]”: the IC50 was more than 10000 nM.

On to `Cc1cccc2oc(-c3c(NC(=O)CCNC(C)C)sc4c3CCNC4)nc12` [Compound 311, 3-(Isopropylamino)-N-(3-(4-methylbenzo[d]oxazol-2-yl)-4,5,6,7-tetrahydrothieno[2,3-c]pyridin-2-yl)propanamide dihydrochloride], for which the IC50 was 300 to 1000 nM.

Regarding `COCCNCCC(=O)Nc1sc2c(c1-c1nc3ccc(-c4ccncc4)cc3s1)CC(C)NC2C` (single isomer, unassigned) [Compound 518, N-(5,7-Dimethyl-3-(6-(pyridin-4-yl)benzo[d]thiazol-2-yl)-4,5,6,7-tetrahydrothieno[2,3-c]pyridin-2-yl)-3-((2-methoxyethyl)amino)propanamide], the half-maximal inhibitory concentration (IC50) is 1000 to 10000 nM.

On to `CC(C)N1CCc2c(sc(NC(=O)CCNCCCOCCOCCOCCCN)c2-c2nc3ccccc3s2)C1` [Compound 120, 1-amino-N-(3-(benzo[d]thiazol-2-yl)-6-isopropyl-4,5,6,7-tetrahydrothieno[2,3-c]pyridin-2-yl)-4,7,10-trioxa-14-azaheptadecan-17-amide], for which the IC50 is less than 300 nM.

For the compound `CCC(C)NCCC(=O)Nc1sc2c(c1-c1nc3cc(Br)ccc3s1)CCNC2` (stereo not drawn) [Compound 139, N-(3-(5-bromobenzo[d]thiazol-2-yl)-4,5,6,7-tetrahydrothieno[2,3-c]pyridin-2-yl)-3-(sec-butylamino)propanamide], the half-maximal inhibitory concentration (IC50) was less than 300 nM.

For the compound “N-((5S,7R)-5,7-dimethyl-3-(5-(pyridin-4-yl)benzo[d]thiazol-2-yl)-4,5,6,7-tetrahydrothieno[2,3-c]pyridin-2-yl)-3-((2-methoxyethyl)amino)propanamide [Compound 532]”, the IC50 is 1000 to 10000 nM.

Still in this test, the particulars now being: Table 3, compounds of FIG. 2; calculated IC50 class.
Consider `CC(=O)Nc1sc2c(c1-c1nc3ccccc3s1)CCC(NC1CCN(C(=O)OC(C)(C)C)CC1)C2` (stereo not drawn) [Compound 228, tert-butyl 4-((2-acetamido-3-(benzo[d]thiazol-2-yl)-4,5,6,7-tetrahydrobenzo[b]thiophen-6-yl)amino)piperidine-1-carboxylate], for which the IC50 is more than 10000 nM.

Consider `CC(=O)Nc1sc2c(c1-c1nc3ccccc3s1)[C@@H](C)CN(C(C)C)C2` [Compound 208, (R)—N-(3-(benzo[d]thiazol-2-yl)-6-isopropyl-4-methyl-4,5,6,7-tetrahydrothieno[2,3-c]pyridin-2-yl)acetamide], for which the IC50 was 1000 to 10000 nM.

In the case of `CC(=O)Nc1sc2c(c1-c1nc3ccccc3s1)CC(C)NC2` (stereo not drawn) [Compound 209, N-(3-(benzo[d]thiazol-2-yl)-5-methyl-4,5,6,7-tetrahydrothieno[2,3-c]pyridin-2-yl)acetamide], the 50% inhibitory concentration (IC50) is 1000 to 10000 nM.

Consider `CC(=O)Nc1sc2c(c1-c1nc3ccccc3s1)CCC(NC(C)=O)C2` (stereo not drawn) [Compound 222, N,N′-(3-(benzo[d]thiazol-2-yl)-4,5,6,7-tetrahydrobenzo[b]thiophene-2,6-diyl)diacetamide], for which the IC50 was more than 10000 nM.

As for `CC(=O)Nc1sc2c(c1-c1nc3ccccc3s1)C(C)CCNC2` (stereo not drawn) [Compound 212, N-(3-(benzo[d]thiazol-2-yl)-4-methyl-5,6,7,8-tetrahydro-4H-thieno[2,3-c]azepin-2-yl)acetamide], the IC50 is more than 10000 nM.

For the compound `CC(=O)Nc1sc2c(c1-c1nc3ccccc3s1)CCN(C(C)C)C2C` (stereo not drawn) [Compound 216, N-(3-(benzo[d]thiazol-2-yl)-6-isopropyl-7-methyl-4,5,6,7-tetrahydrothieno[2,3-c]pyridin-2-yl)acetamide], the IC50 was more than 10000 nM.

Take `CC(=O)Nc1sc2c(c1-c1nc3ccccc3s1)CC(C(F)(F)F)NC2` (stereo not drawn) [Compound 215, N-(3-(benzo[d]thiazol-2-yl)-5-(trifluoromethyl)-4,5,6,7-tetrahydrothieno[2,3-c]pyridin-2-yl)acetamide]: the IC50 is more than 10000 nM.

Take `CC(=O)Nc1sc2c(c1-c1nc3ccccc3s1)[C@H](C)CN(C(C)C)C2` [Compound 207, (S)—N-(3-(benzo[d]thiazol-2-yl)-6-isopropyl-4-methyl-4,5,6,7-tetrahydrothieno[2,3-c]pyridin-2-yl)acetamide]: the IC50 was 1000 to 10000 nM.

Turning to `CC(=O)Nc1sc2c(c1-c1nc3ccccc3s1)C(C)CCN(C(C)C)C2` (stereo not drawn) [Compound 213, N-(3-(benzo[d]thiazol-2-yl)-7-isopropyl-4-methyl-5,6,7,8-tetrahydro-4H-thieno[2,3-c]azepin-2-yl)acetamide], the IC50 is more than 10000 nM.

Regarding `CCN1[C@H](C)Cc2c(sc(NC(C)=O)c2-c2nc3ccccc3s2)[C@@H]1C` [Compound 211, N-(3-(benzo[d]thiazol-2-yl)-6-ethyl-5,7-dimethyl-4,5,6,7-tetrahydrothieno[2,3-c]pyridin-2-yl)acetamide], the IC50 was 1000 to 10000 nM.

In the case of `CC(=O)Nc1sc2c(c1-c1nc3ccccc3s1)CCNC2C` (stereo not drawn) [Compound 210, N-(3-(benzo[d]thiazol-2-yl)-7-methyl-4,5,6,7-tetrahydrothieno[2,3-c]pyridin-2-yl)acetamide], the IC50 is 1000 to 10000 nM.

As for `CC(=O)Nc1sc2c(c1-c1nc3ccccc3s1)CCNC2C(F)(F)F` (stereo not drawn) [Compound 214, N-(3-(benzo[d]thiazol-2-yl)-7-(trifluoromethyl)-4,5,6,7-tetrahydrothieno[2,3-c]pyridin-2-yl)acetamide], the IC50 was more than 10000 nM.
